Tested on: A/Wuhan/359/95 E119V (oseltamivir-resistant)
Type: cell-based, influenza A virus
Details: read-out: IC50 (nM of Zanamivir)

SMILES: CC(=O)N[C@H]1[C@H]([C@H](O)[C@H](O)CO)OC(C(=O)O)=C[C@@H]1N=C(N)N [compound 1, Zanamivir]
- IC50: 48000 nM

Reference: publication PMC3058180 (Journal of pharmaceutical sciences, 2010)
